Tested on: cortical cells and hippocampal cells
Assay: MTT assay, in vitro screening of compounds for cell proliferation activity
Type: cell-based, rat
Settings: 24 hrs treatment
Excerpt: The Tetrazolium MTT [3-(4, 5-dimethyl thiazol-2-yl)-2,5-diphenyl tetrazolium bromide] Assay: MTT assay was used to screen various compounds for their proliferating effect on cortical cells and hippocampal cells. The principle of MTT test is based on the ability of live cells to form insoluble purple formazan product from the breakdown of the water soluble yellow tetrazolium salt by mitochondrial enzyme succinate dehydrogenase (Mosmann, 1983). The resulting intracellular purple formazan can quantify by spectrophotometric means. The MTT Cell Proliferation Assay measures the cell proliferation rate and conversely, when metabolic events lead to apoptosis or necrosis, the reduction in cell viability.
The density of the cortical and hippocampal cells was adjusted at the density 2×10^5 cells/mL in complete DMEM medium (5% FBS). The cells (5000/well) were then plated in 96-wells plate and incubated for 24 hrs at 37° C. with 5% CO2. Following 24 hrs incubation, media was removed and 100 μL of each test compounds in DMEM media (5% FBS) were added. […] The culture plates were re-incubated for 24 hrs at 37° C. in 5% CO2. Cells treated with 0.1% DMSO in complete media (5% FBS) were used as vehicle controls. […] The absorbance was read at 495 nm on spectrophotometer. […] The percent rate of proliferation was calculated using the following formula, % rate of proliferation={(At−Ab)/(Ac−Ab)}×100

With `CC1=CC(=CC(=O)O)CC(C)(C)C1` (mixture of isomers) [acid analog, (E/Z)-2-(3,5,5-trimethylcyclohex-2-enylidene)acetic acid] the “activity on the cell proliferation (MTT screening)” value was “significant potent activity of isoxylitones followed by acid analog”.
